Results published in patent US20250127898A1, “PHOTODYNAMIC THERAPY AND DIAGNOSIS” (RMW CHO Group Limited, priority 2021, published 2025).
Structures can show the parent of a compound that is named as a salt. Where two headings read alike, the source gives them in different places. Where a SMILES comes first, the peptide text is derived from it. The star is where a group is joined. X1 = CCC1=C(C)c2cc3[nH]c(cc4nc(c(C)c5cc(C)c(cc1n2)[nH]5)[C@@H](CCC(=O)*)[C@@H]4C)c(C)c3CC

Legend:
[1] = tested on: Human ovarian cancer cell line SKOV3; assay: Phototoxicity in SKOV3 cells after 660 nm laser or LED activation (AlamarBlue viability); type: cell-based
Method: Samples were stored at 4° C. protected from light. […] All data are shown as mean±SD (where appropriate). […] Laser and LED exposure induce an equivalent response in relation to phototoxicity. Following activation, cells were cultured for a further 24 hours. Media was then replaced with fresh media containing AlamarBlue, and % viable cells remaining assessed as above. Controls included cells treated with reduced chlorin analogues but not activated by laser light; cells without reduced chlorin analogue treatment but with laser light; and untreated controls. All measurements were made in quadruplicate.

[2] = tested on: Human ovarian cancer cell line SKOV3; assay: Inherent cytotoxicity (dark toxicity) in SKOV3 cells (AlamarBlue viability); type: cell-based
Method: Photosensitizers (e.g. chlorin analogue, chlorin e4 disodium (provided by Advanced Molecular Technologies, Scoresby) or Talaporfin sodium (purchased from Focus Bioscience cat #HY-16477-5MG)) were resuspended in 100% dimethylsulfoxide (DMSO) at a concentration of 5.5 mM. Samples were stored at 4° C. protected from light.
All data are shown as mean±SD (where appropriate).
Untreated cells were used as a control. […] All measurements were made in quadruplicate.

C57BL/6 mice = assay: Acute toxicity after intraperitoneal injection into mice; type: in vivo; conditions: 5 mg/kg intraperitoneal, observed for 30 mins, prepared with 1% PVP in PBS+20 mM HEPES
Method: To assess acute toxicity, reduced phyllochlorin or chlorin e4 disodium (each prepared with 1% PVP in PBS+20 mM HEPES) were administered at a dose of 5 mg/kg to C57BL/6 mice by intraperitoneal injection.

[3] = Estimated pKa of the carboxylic acid; type: physicochemical; conditions: estimate, no measurement described
Excerpt: As PBS buffer (pH 7.4) is used in the experiments and the carboxylic acid in reduced phyllochlorin (and the same carboxy group in other related chlorins) is estimated to have a pKa of less than 5, reduced phyllochlorin in the PBS buffer will exist predominantly as the sodium and potassium salts with very little to no free acid.

[4] = tested on: indomethacin-induced gastric lesions; conditions: rats; background statement; cited from earlier work
[5] = tested on: TAA- or CCl4-induced acute liver injuries; conditions: mice; background statement; cited from earlier work
[6] = SKOV3 cells, 24 hours uptake, 660 nm laser, 50 mW/cm^2 for 5 mins (15 J/cm^2), viability 24 hours after activation, read-out: Phototoxicity μM (IC90)
[7] = Homo sapiens, SK-OV-3, light or radiation study, SKOV3 cancer cells, laser or LED, read-out: phototoxicity IC90
[8] = Homo sapiens, SK-OV-3, light or radiation study, SKOV3 cells, 24 hours uptake, 660 nm laser, 50 mW/cm^2 for 5 mins (15 J/cm^2), viability 24 hours after activation, read-out: Phototoxicity μM (IC90)
[9] = SKOV3 cells, 24 hours incubation, no light activation

Reduced Phyllochlorin [Compound 1]
IC90 [1, 6]: 0.176 µM
increase in phototoxicity of meso-compound compared to non-meso analogue ([1]; SKOV3 cells, vs phyllochlorin free acid / phyllochlorin sodium salt): 2.4 fold
Dark toxicity compared to non-meso analogue [2]: largely unaffected
Dark toxicity μM (IC10) [2]: 10.450 µM
clinical signs of acute toxicity (squinting, piloerection, loss of motility, general behaviour) (C57BL/6 mice): safe for injection
pKa of the carboxylic acid (estimated) [3]: less than 5

CCC1=C(C)c2cc3[nH]c(cc4nc(c(C)c5cc(C)c(cc1n2)[nH]5)[C@@H](CCC(=O)N(C)CCCOCCC[P+](c1ccccc1)(c1ccccc1)c1ccccc1)[C@@H]4C)c(C)c3CC [Compound 11]
IC90 [1, 7]: ≤ 0.01 µM
IC90 [1, 8]: 0.003 µM
orders of magnitude greater phototoxicity compared to Talaporfin sodium ([1]; SKOV3 cells, IC90 compared): 4 orders of magnitude
Dark toxicity μM (IC10) ([2]; human, 24 h): 4.347 µM

CCC1=C(C)c2cc3[nH]c(cc4nc(c(C)c5cc(C)c(cc1n2)[nH]5)[C@@H](CCC(=O)N[C@H]1C(O)O[C@H](CO)[C@@H](O)[C@@H]1O)[C@@H]4C)c(C)c3CC (some centres unmarked) [Compound 3, Reduced Phyllochlorin 2-deoxyglucosamine-propylamide]
IC90 [1, 8]: 0.043 µM
Dark toxicity μM (IC10) ([2]; human, 24 h): 13.330 µM

CCC1=C(C)c2cc3[nH]c(cc4nc(c(C)c5[nH]c(cc1n2)c(C)c5C(=O)O)[C@@H](CCC(=O)O)[C@@H]4C)c(C)c3CC [Compound 36, Reduced Chlorin e4]
IC90 [1, 8]: 4.36 µM
Dark toxicity μM (IC10) ([2]; human, 24 h): 12.200 µM

CCC1=C(C)c2cc3[nH]c(cc4nc(c(C)c5cc(C)c(cc1n2)[nH]5)[C@@H](CCC(=O)N(C)CCOCCOCC[n+]1ccccc1)[C@@H]4C)c(C)c3CC [Compound 13, Reduced Phyllochlorin N-(2-(2-(2-pyridiniumethoxy)ethoxy)ethyl)-N-methyl-3-amide chloride]
IC90 [1, 7]: ≤ 0.01 µM
IC90 [1, 8]: 0.006 µM
Dark toxicity μM (IC10) ([2]; human, 24 h): 1.260 µM

CCC1=C(C)c2cc3[nH]c(cc4nc(c(C)c5cc(C)c(cc1n2)[nH]5)[C@@H](CCC(=O)N(C)CCOCCO[C@@H]1O[C@H](CO)[C@@H](O)[C@H](O)[C@H]1O)[C@@H]4C)c(C)c3CC [Compound 5, Reduced Phyllochlorin β-D-1-glucose-N-methyl-2-ethoxy-N-ethanamine]
IC90 [1, 8]: 0.102 µM
Dark toxicity μM (IC10) ([2]; human, 24 h): 18.440 µM

CCC1=C(C)c2cc3[nH]c(cc4nc(c(C)c5cc(C)c(cc1n2)[nH]5)[C@@H](CCC(=O)N[C@H]1C(O)O[C@H](CO)[C@H](O)[C@@H]1O)[C@@H]4C)c(C)c3CC (stereo partly drawn) [Compound 24, Reduced Phyllochlorin 2-deoxy-D-galactosamine-propylamide]
IC90 [1, 8]: 0.049 µM
Dark toxicity μM (IC10) ([2]; human, 24 h): 7.011 µM

CCC1=C(C)c2cc3[nH]c(cc4nc(c(C)c5cc(C)c(cc1n2)[nH]5)[C@@H](CCC(=O)N[C@@H](CCCCN)C(=O)N[C@@H](CCCCN)C(=O)N[C@@H](CCCCN)C(=O)N[C@@H](CCCCN)C(=O)N[C@@H](CCCCN)C(=O)N(C)C)[C@@H]4C)c(C)c3CC [Compound 26, Reduced Phyllochlorin lysyl-lysyl-lysyl-lysyl-lysyl Dimethylamide Propylamide Pentahydrochloride] (X1-KKKKK-NMe2)
IC90 [1, 8]: 0.494 µM
Dark toxicity μM (IC10) [2, 9]: 14.670 µM

Phyllochlorin sodium salt [reference compound]
IC90 [1, 6]: 0.35 µM
Dark toxicity μM (IC10) [2, 9]: 21.96 µM

CCC1=C(C)c2cc3[nH]c(cc4nc(c(C)c5cc(C)c(cc1n2)[nH]5)[C@@H](CCC(=O)N(C)CCCCCCCCCC[P+](c1ccccc1)(c1ccccc1)c1ccccc1)[C@@H]4C)c(C)c3CC [Compound 21, Reduced Phyllochlorin ((methylamino)-10-decyl)triphenylphosphonium Chloride Propylamide]
IC90 [1, 8]: 0.022 µM
Dark toxicity μM (IC10) ([2]; human, 24 h): 1.465 µM

C=Cc1c(C)c2cc3nc(c(C)c4[nH]c(cc5nc(cc1[nH]2)C(C)=C5CC)c(C)c4C(=O)O)[C@@H](CCC(=O)O)[C@@H]3C [chlorin e4, Chlorin e4]
effect against indomethacin-induced gastric lesions [4]: protective effect
effect against TAA- or CCl4-induced acute liver injuries [5]: protective effect
